Reference: patent publication US20020103127A1, “Inhibitors of proteasomal activity for stimulating hair growth” (priority 1998, published 2002)
Where a SMILES comes first, the peptide text is derived from it. [ ]: non-standard residue; d: D form. The star is where a group is joined. Nva = CCC[C@H](N)C(=O)O; Cbz = O=C(OCc1ccccc1)*; OtBu = CC(C)(C)O*

Tests used:
hair follicles [1] = test: Modified in vivo calvarial assay: number of hair follicles after injection over the calvaria; parameters: species or system Swiss ICR mice; settings: for number of hair follicles: administered in the same way as PSI (injection over the calvaria)
Method: Male ICR Swiss white mice, aged 4-6 weeks and weighing 13-26 gm, are employed, using 4-5 mice per group. The calvarial bone growth assay is performed as described in PCT application WO95/242 11, incorporated by reference. Briefly, the test compound or appropriate control vehicle is injected into the subcutaneous tissue over the right calvaria of normal mice. Typically, the control vehicle is the vehicle in which the compound was solubilized, and is PBS containing 5% DMSO or is PBS containing Tween (2 μl/10 ml). The animals are sacrificed on day 14 and bone growth measured by histomorphometry. Bone samples for quantitation are cleaned from adjacent tissues and fixed in 10% buffered formalin for 24-48 hours, decalcified in 14% EDTA for 1-3 weeks, processed through graded alcohols; and embedded in paraffin wax. Three to five μm sections of the calvaria are prepared, and representative sections are selected for histomorphometric assessment of the effects on bone formation and bone resorption. Sections are measured by using a camera lucida attachment to trace directly the microscopic image onto a digitizing plate. Bone changes are measured on sections cut 200 μm apart, over 4 adjacent 1×1 mm fields on both the injected and noninjected sides of the calvaria. New bone is identified by its characteristic woven structure, and osteoclasts and osteoblasts are identified by their distinctive morphology. Histomorphometry software (OsteoMeasure, Osteometrix, Inc., Atlanta) is used to process digitizer input to determine cell counts and measure areas or perimeters.
(§1) The assay described above to assess the effect of compounds on calvarial bone growth can also be used to assess the ability of compounds to stimulate hair growth. The test compound or appropriate control vehicle is applied to the upper and lower back of male ICR Swiss white mice either topically or by subcutaneous injection. The vehicle is selected as appropriate for the compound to be tested and for the route of administration. Optionally, the hair in the test area may be removed prior to administration. After a suitable interval, typically 7 days, the mice are anesthetized and a biopsy of the dorsal treatment area is taken using a 6 mm dermal punch. The specimens are fixed in 10% buffered formalin and imbedded in paraffin wax, and sectioned and stained to observe hair follicles. In addition, photography can be used to observe and record hair growth; typically such growth is observed after 14-18 days. After a suitable interval, typically 21 days, the animals may be euthanized and the hair analyzed for fiber analysis and the tissue from the treatment area analyzed for quantitation of hair follicles.
The in vivo bone calvarial growth assay of Example 3 was modified to observe the number of hair follicles in treated mice. […]

hair follicles [2] = test: Topical administration of PSI solution, hair growth; format: in vivo, mice
Method: PSI was prepared as a topical formulation, where the vehicle was 50% propylene glycol, 30% ethanol, 20% deionized water, at 0.1% concentration of PSI. The solution was applied 3 times a day for 5 days. The mice in a treated group were observed as compared to controls similarly treated with vehicle alone.
When the protocol above was repeated using a 0.5% solution of PSI in groups containing 5 mice each, the number of hairs per 0.8 mm^2 was 60 in the treated mice versus about 10 in the control group. The percentage of follicle area in a region of about 0.8 mm^2 was about 30% as an average in the treated group as compared to 15% as an average in the control group.

hair follicles [3] = test: Stimulation of hair growth: subcutaneous injection into scalp and dorsal region after wax hair stripping; format: in vivo, Male Swiss ICR mice; settings: 1 mg/kg/day s.c. three times a day for five days
Excerpt: as §1
Male Swiss ICR mice were first treated to remove hair from the scalp and dorsal regions as follows. Paraffin wax was liquefied by heating to 55° C. and the liquefied wax then applied by brush to the scalp and/or back (under anesthesia). The wax was allowed to solidify and then removed. The day following hair stripping, PSI (1 mg/kg/day) was injected subcutaneously three times a day for five days into the scalp and dorsal region.
The mice were sacrificed on day 21 and histology was performed on the dermis of the scalp and of the dorsal region. […] Upon closer examination, it was observed that mice that had received only vehicle had quiescent hair follicles.

hair follicles [4] = test: Topical dose response of PSI (dose requirements); format: in vivo, mice
Method: In order to determine the minimal effective dosage of PSI, when used topically, a dose response curve for PSI was prepared. All experiments were preformed according to current good laboratory practice regulations (21CFR58). The mice were divided into 7 groups, 10 mice each, wherein one group was control treated only with vehicle and groups 1-6 with a series of increasing concentrations of PSI in a vehicle comprising 50% propylene glycol, 30% ethanol, 20% deionized water. The concentrations were 0.006%, 0.012%, 0.025%, 0.05%, 0.11% and 0.5%.
The mice were anesthetized (50 μl Mouse Cocktail containing 3 ml ketamine, 2 ml small animal rompum, 5 ml NaCl), identified by ear punch code, weighed and the hair on the dorsal side removed by waxing as described in Example 6. After waxing, the animals were photographed. On the following day (day 1), 100 μl of PSI at the above concentrations in vehicle was brushed onto the area of removed hair. […]
On Day 7 mice were anesthetized and a biopsy of the dorsal treatment area taken using a 6 mm dermal punch; the specimens were fixed in 10% buffered formalin and embedded in paraffin wax. Sections were cut using a standard microtome.
Mice were monitored daily for signs of hair growth, and any hair growth was recorded by photography. On day 21 animals were euthanized (75 mg/kg body weight phenobarbital, IP injection), 2 cm hair samples were taken for optical based fiber analysis, and the remaining dorsal treatment area was fixed in 10% buffered formalin for further histological analysis. Analysis included quantification of hair thickness and quantification of mature hair follicles. Results were expressed as the mean =+/− the standard error of the mean. Data were analyzed by repeated measures of analysis of variance followed by the Tukey-Kramer post test P values of <0.05 were considered significant.

calvarial bone = test: in vitro calvarial assay; format: cell-based
[5] = compared with proteasome inhibitors such as MG-132
[6] = topical 0.5% solution of PSI, 3 times a day for 5 days, groups of 5 mice

## CC(C)C[C@@H](C=O)NC(=O)[C@H](CC(C)C)NC(=O)[C@H](CC(C)C)NC(=O)OCc1ccccc1 [MG132, N-carbobenzoyl-Leu-Leu-Leu-CHO] (Cbz-Leu-Leu-Leu-aldehyde)
Hair follicles [1]; 10 mg/kg
  number of hair follicles: stimulated an increase in the number of hair follicles

## CC[C@H](C)[C@H](NC(=O)OCc1ccccc1)C(=O)N[C@@H](CCC(=O)OC(C)(C)C)C(=O)N[C@@H](C)C(=O)N[C@H](C=O)CC(C)C [PSI, N-carbobenzoyl-Ile-Glu-(OtBu)-Ala-Leu-CHO] (Cbz-IE(OtBu)AL-aldehyde)
Hair follicles [2]; topical 0.1% PSI in 50% propylene glycol, 30% ethanol, 20% water, 3 times a day for 5 days, day 16
  hair growth relative to vehicle controls: stimulation of hair growth relative to the controls
Hair follicles [2]; [6]
  number of hairs per 0.8 mm^2: 60 per 0.8 mm^2
  percentage of follicle area in a region of about 0.8 mm^2 (average): about 30%
Hair follicles [2]; topical PSI
  thickness of hair and hair shaft: able to thicken both the hair and the hair shaft
Hair follicles [2]; topical PSI, follicle area greater than 0.01 mm^2
  hair count: increases hair count
Hair follicles [1]; 5mg/kg/day injected three times a day for 5 days over the calvaria, sacrificed sixteen days later
  number of hair follicles (histology of the calvaria) versus control mice: strikingly large increase in the number of hair follicles
Hair follicles [3]; by day 18
  hair growth rate versus control group: hair growth rate greater than that of the mice in the control group
Hair follicles [3]; day 7
  number of hair follicles (dermal punch biopsy histology) versus control mice: large increase in the number of hair follicles
Hair follicles [3]; day 21
  effect on quiescent hair follicles (histology): stimulated to differentiate into mature hair follicles and to migrate to the lower region of the dermis
  mature hair follicles in dermis of scalp and dorsal region (histology): mature hair follicles in numbers much greater than in controls had migrated to the lower region of the dermis
Hair follicles [4]; 0.1% applied topically 3 times a day for 5 days
  efficacy on hair growth (additional experiments): also effective
Hair follicles [4]; mice receiving an effective topical dose
  gross observation of hair growth: an enhanced rate of hair growth, a thickening of hair diameter, increase in sheath diameter, and differentiation of quiescent hair follicles into more mature forms
Hair follicles [4]; topical, applied 1 time a day for 4 days, 100 μl in 50% propylene glycol, 30% ethanol, 20% water
  minimal effective dose (topical concentration): 0.5%

## CC(=O)CCCCn1c(=O)c2c(ncn2C)n(C)c1=O [pentoxyfilline]
Calvarial bone
  activity in the in vitro calvarial assay: active

## CC(=O)N[C@@H](CSC(=O)[C@]1([C@@H](O)C(C)C)NC(=O)[C@H](C)[C@@H]1O)C(=O)O [lactacysin, lactacystin]
Hair follicles [1]; dose not given
  number of hair follicles: stimulated an increase in the number of hair follicles

## CCC[C@@H](C=O)NC(=O)[C@H](CC(C)C)NC(=O)[C@H](CC(C)C)NC(=O)OCc1ccccc1 [MG115, N-carbobenzoyl-Leu-Leu-Nva-CHO] (Cbz-Leu-Leu-[Nva]-aldehyde)
Hair follicles [1]; 10 mg/kg
  number of hair follicles: stimulated an increase in the number of hair follicles

## C=C(C)[C@]12C[C@@H](C)[C@@]34O[C@](Cc5ccccc5)(O[C@@H]1[C@@H]3C=C(COC(=O)Cc1ccc(O)c(OC)c1)C[C@]1(O)C(=O)C(C)=C[C@@H]41)O2 [resiniferatoxin]
[5]
  activity in the ABA assay: less active
